Results on 11 molecules are retold here after ChEMBL document CHEMBL3046410, “Antioxidant activities and transition metal ion chelating studies of some hydroxyl Schiff base derivatives” (Med Chem Res, 2012).

The test system of series [1] is Radical scavenging activity. Description: Antioxidant activity assessed as inhibition of DPPH free radical. The series is classed as functional. (The DPPH test is a chemical assay of radical scavenging.)
Series [2] is described as follows: Antioxidant activity assessed as Fe2+ quenching activity. The series is classed as functional.
Series [3] in a line: Antioxidant activity assessed as inhibition of ABTS free radical. The series is classed as functional.
Series [4] is described as follows: Binding affinity to Cu2+. The series is classed as physicochemical.
Series [5] can be described thus: Antioxidant activity assessed as Cu2+ quenching activity. The series is classed as functional.
Series [6] is described as follows: Binding affinity to Fe2+.
Series [7] is described as follows: Antioxidant activity assessed as Fe2+ chelating activity by fluorescence spectroscopy. The series is classed as functional.
The nature of series [8]: Antioxidant activity assessed as Cu2+ chelating activity by fluorescence spectroscopy. The series is classed as functional.

Each structure is given as a SMILES string. The source made the active and inactive calls. The calls are words filed in the database; no cut-off is given here.

For `Oc1ccc(/N=C/c2ccccc2O)cc1`, the figures for the IC50 in series [1] and in series [3] were 107 µM and 4.68 µM, respectively. Besides, the KSV in series [2] was 1.43 ×10⁵ /M; in series [5] it was 7.21 ×10⁴ /M. Besides, the Ka turned out to be 4.43 ×10³ /M in series [4] and 9.67 ×10³ /M in series [6].

As for `Cc1cc(C(C)(C)C)c(O)c(C(C)(C)C)c1` [BUTYLATED HYDROXYTOLUENE], the values for the IC50 in series [1] and in series [3] were 65.8 µM and 37 µM, respectively.

For `CN(C)c1ccc(/C=N/c2ccccc2O)cc1`, the values for the IC50 in series [1] and in series [3] were 10.8 µM and 7.07 µM, respectively. The KSV amounted to 5.19 ×10³ /M in series [2] and 1.53 ×10⁴ /M in series [5]. In addition, the Ka in series [4] turned out to be 2.36 ×10⁴ /M; in series [6], 7.3 ×10⁴ /M.

With `Oc1cccc(/N=C/c2ccccc2)c1` [3-(BENZYLIDENEAMINO)PHENOL], the results for the IC50 in series [1] and in series [3] were 466 µM and 33.5 µM, respectively. Further, the KSV in series [2] was determined as 7.03 ×10³ /M; in series [5], 5.2 ×10³ /M. In addition, the Ka stood at 1.39 ×10⁴ /M in series [4] and 1.47 ×10⁴ /M in series [6].

As for `Oc1ccc(/N=C/c2ccco2)cc1`, the IC50 (commonly the concentration needed to halve the response being measured) turned out to be 50.2 µM in series [1] and 6.14 µM in series [3]. Besides, the results for the KSV in series [2] and in series [5] were 0.9 ×10³ /M and 1.17 ×10³ /M, respectively. In addition, the results for the Ka in series [4] and in series [6] were 0.85 ×10³ /M and 1.81 ×10³ /M, respectively.

Consider `CN(C)c1ccc(/C=N/c2ccc(O)cc2)cc1`, for which the IC50 in series [1] is 20.8 µM; in series [3] it was 4.16 µM. For the same molecule, the KSV was 7.4 ×10³ /M in series [2] and 2.69 ×10⁴ /M in series [5]. In addition, the Ka in series [4] worked out at 3.05 ×10³ /M; in series [6], 5.03 ×10³ /M.

With `Oc1cccc(/N=C/C=C/c2ccccc2)c1`, the results for the IC50 in series [1] and in series [3] were 143 µM and 3.99 µM, respectively. In addition, the KSV was found to be 8.91 ×10³ /M in series [2] and 2.8 ×10³ /M in series [5]. Moreover, the Ka was found to be 3.51 ×10³ /M in series [4] and 6.25 ×10³ /M in series [6].

As for `Oc1ccccc1/C=N/c1ccccc1O`, the result in series [7] and in series [8] was Active. Besides, the results for the IC50 in series [1] and in series [3] were 25 µM and 5.16 µM, respectively. The values for the KSV in series [2] and in series [5] were 6.7 ×10⁴ /M and 6.07 ×10⁴ /M, respectively. Further, the Ka was determined as 1.26 ×10⁴ /M in series [4] and 6.48 ×10³ /M in series [6].

Consider `Oc1cccc(/N=C/c2ccccc2O)c1`, for which the values for the IC50 in series [1] and in series [3] were 407 µM and 3.68 µM, respectively. In addition, the KSV was 2.61 ×10⁴ /M in series [2] and 1.1 ×10⁵ /M in series [5]. The Ka in series [4] was 3.02 ×10³ /M; in series [6], 3.21 ×10³ /M.

In the case of `Oc1ccc(/N=C/C=C/c2ccccc2)cc1`, the IC50 was determined as 399 µM in series [1] and 4.93 µM in series [3]. Besides, the values for the KSV in series [2] and in series [5] were 6.6 ×10³ /M and 2.49 ×10³ /M, respectively. The Ka in series [4] amounted to 1.45 ×10⁴ /M; in series [6], 2.47 ×10⁴ /M.

`Oc1ccc(/N=C/c2ccccc2)cc1` [4-(BENZYLIDENEAMINO)PHENOL]: the IC50 worked out at 71.5 µM in series [1] and 6.03 µM in series [3]. Further, the KSV in series [2] came out at 4.09 ×10³ /M; in series [5], 3.49 ×10³ /M. In addition, the Ka was determined as 3.17 ×10³ /M in series [4] and 1.62 ×10⁴ /M in series [6].
